According to patent EP3508492A1, “TIACUMICIN DERIVATIVES AND THEIR USE AS ANTIBIOTICS” (priority 2018, dated 2019):
Converted amounts (≈) assume the structure as drawn. “And” between values parts separate entries of the source, which are not always exact repeats. Identical values can stand only once. Like-named read-outs stand apart in the source and are kept apart here.

How the values were obtained:
Staphylococcus aureus = assay: MIC determination by broth dilution (CLSI); conditions: ATCC29213
Method: (§1) The strains of Bacillus subtilis and Staphylococcus aureus were grown overnight at 37 °C on MH II agar plates. (BD™ BBL™ Mueller Hinton II Agar, BD Diagnostics). MIC values were determined by broth dilution method according to the recommendations of the Clinical and Laboratory Standards Institute (CLSI; U.S.A.). The inoculum size was about 7.5 x 10^5 colony forming units/well. The compounds were diluted in H2O from 1.0 mg/mL stock solutions in methanol/H2O 1/1 in a 2-fold dilution series. The microtiter plates were incubated at 37 °C overnight.

Bacillus subtilis = assay: MIC determination by broth dilution (CLSI); conditions: DSM3256
Method: as §1

[1] = tested on: Mycobacterium tuberculosis H37Ra; assay: MIC determination from adjusted liquid culture, serial dilution; type: cell-based; conditions: ATCC 25177 / H37Ra, strain ATCC25177, Middlebrook 7H9 + 10 % ADC, read after 3-14 days
Method: An M. tuberculosis H37Ra (ATCC25177) liquid culture (5 mL, Middlebrook 7H9 broth base + 10 % ADC supplement) was inoculated from original stock (-80°C). After two to five days of shaking at 37°C, an OD600 (optical density at λ = 600 nm) of approximately 1 was observed. […] Plates were covered with plastic foil and a lid. MIC values were determined by visual inspection or by plate reader at 600 nm after 3-14 days (pre-tempered at 37°C with plastic foil, lid removed). Table 1: The MIC values in Table 1 are given in µg/mL and in nmol/mL.

[2] = Determination of aqueous solubility (UHPLC, caffeine internal standard); type: physicochemical; conditions: for weight-% of isomer (transacylated regioisomer): five hours at room temperature, equal absorption of both regioisomers assumed; for solubility at 5 h: thermodynamic from solid
Method: A standard stock solution of each analyte in MeOH at a concentration of 1.0 mg/mL was prepared. All analytes were completely soluble in MeOH. A standard stock solution of caffeine for use as internal standard (IS) in MeOH was prepared at a concentration of 1 mg/mL. These stock solutions were further diluted with MeOH to calibration standard samples at concentrations of 50, 100, 200, 300, 400, 500 µg/mL of analyte with each sample containing 50 µg/mL of caffeine as IS. These samples were analyzed by UHPLC [Kinetex® EVO C18; 1.7 µm; 100 Å, 50 mm x 2.1 mm; Phenomenex; solvent A: H2O + 0.1 % HCOOH, solvent B: MeCN + 0.1 % HCOOH; 0.4 mL/min; 1.0 µL injection volume, LC time program (min - % B): 0.50 min - 5 %, 3.50 min - 95 %, 3.55 min - 100 %; UV detection at λ = 270 nm]. The peak area of the analyte signal was divided by the peak area of the IS. This peak ratio was plotted against the analyte's concentration to obtain a linear equation.
For reproducibility reasons, water solubility of the fidaxomicin derivatives was quantified in a pH = 7 phosphate buffered aqueous solution (Acros, CAS 7558-79-4). A stock solution of caffeine in phosphate buffer at a concentration of 1.0 mg/mL was prepared and diluted to a concentration of 50 µg/mL. To 1.0 mL of this caffeine solution, the analyte was added as a solid until a saturated solution was obtained. This solution was stirred for five hours at room temperature. The mixture was filtered over a 0.22 µm syringe filter and the obtained solution was analyzed by UHPLC. The concentration was then calculated from the linear equation obtained from the calibration.
With most samples of fidaxomicin derivatives, two peaks for the analyte were detected, viz. one for the original substance and one for its regioisomer formed by transacylation of the isobutyric acid ester. In the following table, the total solubility of each analyte is given with the percentage of isomerization added in parentheses (weight-% of transacylated isomer), assuming that both regioisomers feature approximately the same absorption characteristics. Table 2: Aqueous solubility of fidaxomicin derivatives

[3] = pH = 7 phosphate buffered aqueous solution

Row | Structure (SMILES) | MIC (Staphylococcus aureus) | MIC (Bacillus subtilis) | MIC [1] | weight-% of isomer (transacylated regioisomer) [2, 3] [weight-%] | solubility at 5 h ([2]; phosphate buffer, aqueous buffer, pH = 7 phosphate buffered aqueous solution, stirred five hours at room temperature, 0.22 µm filter, read-out: Conc. (aqueous solubility, total of both regioisomers)) [µg/mL] | solubility at 5 h ([2]; pH 7, aqueous buffer) [µg/mL]
1 | CCOC(=O)COc1c(Cl)c(O)c(C(=O)O[C@H]2[C@H](O)[C@H](OC)[C@H](OC/C3=C\C=C\C[C@H](O)/C(C)=C/[C@H](CC)[C@@H](O[C@@H]4OC(C)(C)[C@@H](OC(=O)C(C)C)[C@H](O)[C@@H]4O)/C(C)=C/C(C)=C/C[C@@H]([C@@H](C)O)OC3=O)O[C@@H]2C)c(CC)c1Cl [Compound 5a, Fidaxomicin Ethylacetate] | 16 µg/mL and 14 µM | 32 µg/mL and 28 µM | 2 µg/mL to 8 µg/mL and 1.8 µM to 7 µM |  |  | 
2 | CCOC(=O)COc1c(Cl)c(CC)c(C(=O)O[C@H]2[C@H](O)[C@H](OC)[C@H](OC/C3=C\C=C\C[C@H](O)/C(C)=C/[C@H](CC)[C@@H](O[C@@H]4OC(C)(C)[C@@H](OC(=O)C(C)C)[C@H](O)[C@@H]4O)/C(C)=C/C(C)=C/C[C@@H]([C@@H](C)O)OC3=O)O[C@@H]2C)c(OCC(=O)OCC)c1Cl [Compound 5b, Fidaxomicin Bis(ethylacetate)] | 32 µg/mL to 64 µg/mL and 26 µM to 52 µM | 8 µg/mL to 16 µg/mL and 6.5 µM to 13 µM | 1 µg/mL to 4 µg/mL and 0.8 µM to 3.3 µM |  |  | 
3 | C=CCOC(=O)N1CCN(C(=O)COc2c(Cl)c(O)c(C(=O)O[C@H]3[C@H](O)[C@H](OC)[C@H](OC/C4=C\C=C\C[C@H](O)/C(C)=C/[C@H](CC)[C@@H](O[C@@H]5OC(C)(C)[C@@H](OC(=O)C(C)C)[C@H](O)[C@@H]5O)/C(C)=C/C(C)=C/C[C@@H]([C@@H](C)O)OC4=O)O[C@@H]3C)c(CC)c2Cl)CC1 [Compound 7a, Fidaxomicin Piperazine with alloc Protecting Group] | 16 µg/mL to 32 µg/mL and 12.6 µM to 25.2 µM | > 64 µg/mL and > 50.5 µM |  |  |  | 
4 | CCc1c(Cl)c(OCC(=O)N2CCC(O)CC2)c(Cl)c(O)c1C(=O)O[C@H]1[C@H](O)[C@H](OC)[C@H](OC/C2=C\C=C\C[C@H](O)/C(C)=C/[C@H](CC)[C@@H](O[C@@H]3OC(C)(C)[C@@H](OC(=O)C(C)C)[C@H](O)[C@@H]3O)/C(C)=C/C(C)=C/C[C@@H]([C@@H](C)O)OC2=O)O[C@@H]1C [Compound 10a] |  |  |  | 7 | 180 (≈ 150 µM) | 
5 | CCc1c(Cl)c(OCC(=O)N2CCN(c3cc4c(cc3F)c(=O)c(C(=O)O)cn4C3CC3)CC2)c(Cl)c(O)c1C(=O)O[C@H]1[C@H](O)[C@H](OC)[C@H](OC/C2=C\C=C\C[C@H](O)/C(C)=C/[C@H](CC)[C@@H](O[C@@H]3OC(C)(C)[C@@H](OC(=O)C(C)C)[C@H](O)[C@@H]3O)/C(C)=C/C(C)=C/C[C@@H]([C@@H](C)O)OC2=O)O[C@@H]1C [Compound 11a, Fidaxomicin-Ciprofloxacin Hybrid] | > 64 µg/mL and > 44.8 µM |  | 16 µg/mL to 64 µg/mL and 11.2 µM to 44.8 µM |  |  | 
6 | CCc1c(Cl)c(O)c(Cl)c(O)c1C(=O)O[C@H]1[C@H](O)[C@H](OC)[C@H](OCC2=CC=CC[C@H](O)C(C)=C[C@H](CC)[C@@H](O[C@@H]3OC(C)(C)[C@@H](OC(=O)C(C)C)[C@H](O)[C@@H]3O)C(C)=CC(C)=CC[C@@H]([C@@H](C)O)OC2=O)O[C@@H]1C [Fidaxomicin, 3-(((6-Deoxy-4-O-(3,5-dichloro-2-ethyl-4,6-dihydroxybenzoyl)-2-O-methyl-β-D-mannopyranosyl)oxy)-methyl)-12(R)-[(6-deoxy-5-C-methyl-4-O-(2-methyl-1-oxopropyl)-β-D-lyxo-hexopyranosyl)oxy]-11(S)-ethyl-8(S)-hydroxy-18(S)-(1(R)-hydroxyethyl)-9,13,15-trimethyloxacyclooctadeca-3,5,9,13,15-pentaene-2-one, reference compound] | 8 µg/mL to 16 µg/mL and 7.6 µM to 15.1 µM | 8 µg/mL to 16 µg/mL and 7.6 µM to 15.1 µM | 4 µg/mL and 3.8 µM | 9 |  | 84 (≈ 79.4 µM)
